In assay [1] the test system is IL-17A gene expression. Put plainly: Effect on IL-23-induced cytokine expression in mice. To be noted: Mus musculus, 30 min before and 8 hr after IL-23, versus the negative control group, read-out: Percent inhibition of IL-17A gene expression; for inhibition in vivo at 10 mg/kg: dose 10 mg/kg oral; for inhibition in vivo at 30 mg/kg: dose 30 mg/kg oral. The format is in vivo, Balb/c mice. How it is done:
Effect on IL-23-induced Cytokine Expression in Mice
A mouse IL-23 solution (500 ng/10 μL, prepared by Takeda Pharmaceutical Company Limited) or PBS (10 μL, negative control group) was administered intradermally in the ear of Balb/c mice (Charles River Japan, male, 7 weeks old). Twenty-four hr after administration, the ear was resected under isoflurane anesthesia. The test compound was suspended in 0.5% methylcellulose and administered orally 30 min before and 8 hr after IL-23 administration.
RNA extraction from the ear tissue and quantitative PCR were performed as follows. Specifically, ear tissue 5 mm in diameter was punched from an area of the resected ear centering on the IL-23 injection site, and the tissue was immersed in RNAlater (QIAGEN) for at least 18 hr. The RNAlater-treated ear tissue was homogenized in 350 μL of RLT buffer (RNeasy mini kit, QIAGEN) and treated (55° C., 10 min) with Proteinase K (QIAGEN). Total RNA was then extracted according to the RNeasy mini kit protocol. The RNA thus obtained was then reverse transcribed into cDNA using the High-Capacity RNA-to-cDNA kit (Applied Biosystems), and the amount of each cytokine expressions was measured by real-time PCR (Viia7™, Applied Biosystems). The PCR buffer used was TaqMan Fast Advanced Master Mix (Applied Biosystems), and TaqMan Gene Expression Assays (Applied Biosystems) Mm00439618 ml (IL-17A) and 4352341E (β-actin) were used for cytokine gene detection. The IL-17A gene expression level was normalized to the R-actin gene expression level, and the percent inhibition of IL-17A gene expression with the test compound was then calculated.
The results obtained with the above-described method (percent inhibition of IL-17A gene expression with oral administration of the test compound) are shown in Table 5.

Assay [2] addresses T1, RORγt (Homo sapiens, UniProt P51449).
T1 sequence (P51449 1-497 isoform P51449-2): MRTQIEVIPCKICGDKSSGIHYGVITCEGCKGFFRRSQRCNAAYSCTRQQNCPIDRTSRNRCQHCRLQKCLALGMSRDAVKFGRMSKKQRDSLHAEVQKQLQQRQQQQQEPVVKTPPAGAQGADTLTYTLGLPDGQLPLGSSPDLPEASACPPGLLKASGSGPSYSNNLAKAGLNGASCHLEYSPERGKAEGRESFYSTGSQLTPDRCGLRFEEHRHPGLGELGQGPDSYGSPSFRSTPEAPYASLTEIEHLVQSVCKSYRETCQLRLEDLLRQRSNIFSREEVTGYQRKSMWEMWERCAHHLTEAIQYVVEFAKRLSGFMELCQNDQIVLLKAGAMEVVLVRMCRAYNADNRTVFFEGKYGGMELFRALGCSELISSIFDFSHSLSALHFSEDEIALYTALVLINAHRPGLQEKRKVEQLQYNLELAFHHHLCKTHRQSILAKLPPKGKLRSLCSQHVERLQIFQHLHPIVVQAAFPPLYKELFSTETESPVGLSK
Put plainly: RORγt binding test using fluorescent-labeled synthetic ligand (TR-FRET). Conditions: read-out: Binding inhibitory rate of fluorescent-labeled synthetic ligand to RORγt at test compound 1 μM (%). In a few lines:
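His-tagged RORγt (diluted to 240 nM) with compound, then fluorescent synthetic ligand (diluted to 12 μM), 20 min at room temperature, followed by Tb anti-His antibody (diluted to 8 nM), 20 min.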
A general note: Time-resolved FRET reads energy transfer from a long-lived donor to a nearby acceptor.

Assay [3] deals with T1, RORγt. Put plainly: Cofactor recruitment test (Alpha Screen, biotinylated SRC-1 peptide). Conditions: read-out: Signal value inhibitory rate at test compound 1 μM (%). The format is biochemical. The protocol:
Cofactor Recruitment Test
Cofactor recruitment test was performed by Alpha Screen (Histidine Detection Kit, PerkinElmer) method. First, a test compound was diluted with an assay buffer (50 mM Tris-HCl (pH 7.5), 50 mM KCl, 1 mM DTT, 0.1% BSA) and added to a 384 well plate by 5 μL. […] The mixture was stood in a dark place for 1 hr, and the signal value was measured by Envision (PerkinElmer).

The target of assay [4] is T1, RORγt. Put plainly: Jurkat reporter test (human IL-17 ROR response element luciferase, RORγt vector). The class given is cell-based. Conditions: Jurkat, read-out: Luminescence level inhibitory rate at test compound 3 μM (%). A digest of the protocol: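 Luminescence (Bright-Glo, 10 min, RT) was measured after overnight compound treatment of electroporated Jurkat cells (1350 V, 10 ms interval, 3 pulses). The reaction medium was RPMI with 10% lipid-reduced FCS, 10 mM HEPES (pH 7.5) and 5 μM lovastatin.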

Assay [5] deals with IL-17 production in human blood. In words: Effect on IL-17 production in human blood. To be noted: 72 h, 10 μM test compound, IL-23 and Dynabeads stimulation, 3 days, read-out: Percent Inhibition at 10 μM (IL-17 production). The class given is cell-based. The protocol: Effect on IL-17 Production in Human Blood
The inhibitory effect of the test compound on IL-17 production in human blood was evaluated as follows. First, 150 μL of peripheral blood collected from healthy individuals using heparinized vacuum blood collection tubes was dispensed into each well of a 96-well plate (Corning), and 45 μL of RPMI 1640 medium (Gibco) containing 10% fetal bovine serum (FBS, Hyclone) and 30 μL of the test compound diluted with the medium was added to each well. The plate was then cultured for 30 min at 37° C. Cells were subsequently stimulated by adding 30 μL of 100 ng/mL human IL-23 (R&D) and 45 μL of Dynabeads Human (Invitrogen) to each well and culturing the plate for 3 days at 37° C. In wells without stimulation, 75 μL of RPMI 1640 medium containing 10% FBS was added instead of the IL-23 and Dynabeads solution. After culturing for 3 days, the culture supernatant was collected, and the amount of IL-17 in the supernatant was measured using an IL-17 ELISA kit (R&D).
The results of the above-described measurements (percent inhibition of IL-17 production with 10 μM of the test compound) are shown in Table 4.

Assay [6] has as its system mouse model of IL-23-induced psoriasis. In words: Effect in a mouse model of IL-23-induced psoriasis. The class given is in vivo, Balb/c mice. Conditions: dose 30 mg/kg oral twice daily; versus the negative control group. How it is done:
Effect in a Mouse Model of IL-23-induced Psoriasis
Mouse IL-23 (500 ng/15 μL, R&D) or PBS (15 μL, negative control group) was administered intradermally in the ear of Balb/c mice (Charles River Japan, male, 7 weeks old) 5 times every other days. Seven hr after IL-23 administration at 8 days after the initial administration (final administration), the mice were anesthetized with isoflurane, and ear thickness was measured with calipers. After the ear thickness was measured, the ear was resected, tissue 8 mm in diameter was punched from an area centering on the IL-23 injection site, and the tissue was weighed. The punched ear tissue was cut in half, and one half was immersion-fixed in 10% neutral buffer formalin solution for use in histopathological evaluation. The other half was immersed in RNAlater (QIAGEN) for at least 18 hr for use in an evaluation of the IL-17A mRNA expression level. The test compound was suspended in 0.5% methylcellulose and administered orally twice daily on consecutive days from 30 min before the initial IL-23 administration to 30 min before the final IL-23 administration.
The change in ear thickness in this model was evaluated by calculating the difference in measured thickness between before IL-23 administration and 7 hr after the final IL-23 administration. In addition, the formalin-fixed tissue was embedded and sectioned, then stained with hematoxylin-eosin. The degree of acanthosis was then evaluated qualitatively by microscopy (classified with a score of 0 to 4). RNA extraction from the ear tissue and quantitative PCR were performed as follows. […] The RNA thus obtained was reverse transcribed into cDNA using the High-Capacity RNA-to-cDNA kit (Applied Biosystems), and the expression of each gene was measured by real-time PCR (Viia7™, Applied Biosystems). […] The IL-17A gene expression level was normalized to the R-actin gene expression level, and the percent inhibition of IL-17A gene expression with the test compound was then calculated. […]

For assay [7], the target named is T1, RORγt. In words: RORγt binding test using fluorescent-labeled cholesterol (TR-FRET). To be noted: read-out: Binding inhibitory rate of fluorescent-labeled cholesterol to RORγt at test compound 1 μM (%). In a few lines: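 After 20 min at room temperature with His-tagged RORγt and BODIPY-cholesterol in pH 7.5 Tris buffer (NaCl, DTT, BSA), compound wells got terbium anti-His antibody for another 20 min. Time-resolved FRET was read with excitation 320 nm, emission 520 nm and a 100 µs delay.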

The record followed here is patent US10053468B2, “Heterocyclic compound” (TAKEDA PHARMACEUTICAL COMPANY LIMITED, priority 2013, dated 2018).

For the molecule `COc1ccc2c(c1)CCN(C(=O)N1CC(CC(=O)O)C1)[C@H]2C(=O)Nc1cc(F)c([Si](C)(C)C)c(F)c1` [Example 260, (1-(((1R)-1-((3,5-difluoro-4-(trimethylsilyl)phenyl)carbamoyl)-6-methoxy-3,4-dihydroisoquinolin-2(1H)-yl)carbonyl)azetidin-3-yl)acetic acid], the inhibition in vivo at 10 mg/kg in assay [1] was determined as 76%. The inhibition at 1 µM was found to be 102% in assay [2] and 95% in assay [3]. The inhibition at 3 µM in assay [4] came to 101%. Besides, the inhibition at 10 µM in assay [5] amounted to 89%.

For `CCOc1ccc2c(c1)CCN(C(=O)CCCC(=O)O)[C@H]2C(=O)Nc1cc(F)c([Si](C)(C)C)c(F)c1` [Example 179, 5-((1R)-1-((3,5-difluoro-4-(trimethylsilyl)phenyl)carbamoyl)-6-ethoxy-3,4-dihydroisoquinolin-2(1H)-yl)-5-oxopentanoic acid], in assay [1], the inhibition in vivo at 30 mg/kg stood at 95%. Also, the values for the inhibition at 1 µM in assay [2] and in assay [3] were 101% and 94%, respectively. Moreover, the inhibition at 3 µM in assay [4] came to 102%. Also, the inhibition at 10 µM in assay [5] was found to be 82%.

`C[Si](C)(C)c1c(F)cc(NC(=O)[C@H]2c3ccc4c(c3CCN2C(=O)N2CC(CC(=O)O)C2)OCO4)cc1F` [Example 272, (1-(((6R)-6-((3,5-difluoro-4-(trimethylsilyl)phenyl)carbamoyl)-8,9-dihydro[1,3]dioxolo[4,5-f]isoquinolin-7(6H)-yl)carbonyl)azetidin-3-yl)acetic acid]: the inhibition in vivo at 10 mg/kg in assay [1] worked out at 86%. The values for the inhibition at 1 µM in assay [2] and in assay [3] were 102% and 101%, respectively. In addition, the inhibition at 3 µM in assay [4] was 100%. In addition, the inhibition at 10 µM in assay [5] stood at 93%.

As to `COc1ccc2c(n1)CCN(C(=O)CCCC(=O)O)[C@H]2C(=O)Nc1cc(F)c2c(c1)CCC2(C)C` [Example 118, 5-((5R)-5-((7-fluoro-1,1-dimethyl-2,3-dihydro-1H-inden-5-yl)carbamoyl)-2-methoxy-7,8-dihydro-1,6-naphthyridin-6(5H)-yl)-5-oxopentanoic acid], the inhibition in vivo at 10 mg/kg in assay [1] stood at 87%. Besides, in assay [6], the “Percent Inhibition of Acanthosis Score” value was 80%, the “Percent Inhibition of Ear Thickness” value is 61% and the “Percent Inhibition of IL-17A Expression” value amounted to 111%. The inhibition at 10 µM in assay [5] was 88%.

`COc1ccc2c(n1)CCN(C(=O)CCCC(=O)O)[C@H]2C(=O)Nc1ccc([Si](C)(C)C)c(F)c1` [Example 140, 5-((5R)-5-((3-fluoro-4-(trimethylsilyl)phenyl)carbamoyl)-2-methoxy-7,8-dihydro-1,6-naphthyridin-6(5H)-yl)-5-oxopentanoic acid]: the inhibition in vivo at 30 mg/kg in assay [1] is 90%. Also, the inhibition at 1 µM was determined as 101% in assay [2], 95% in assay [3] and 100% in assay [7]. For the same molecule, the inhibition at 3 µM in assay [4] is 102%. Further, the inhibition at 10 µM in assay [5] was 91%.
